The IC50 is the point on the concentration scale where inhibition reaches its midpoint.

What all share (format): biochemical
One experiment concerns the target PI3K (p110δ/p85α) (Homo sapiens, UniProt O00329). Nature of the experiment: PI3Kδ assay (ADP-Glo Kinase Assay). The conditions noted are these: recombinant enzyme; IC50 (nM) or max inhibition (%) at 0.5 μM. The method, then: Compounds disclosed herein were tested for inhibition of PI3Kδ kinase activity using commercial ADP-Glo™ Kinase Assay (Promega Corporation) and following the manufacture's instruction. Briefly, recombinant PI3K (p110δ/p85α) enzyme, lipid kinase substrate and a serial dilution of compounds disclosed herein were incubated for 0.5 hr at room temperature. ATP was added to initiate the kinase reaction. After incubation for 1 hr at room temperature, ADP-Glo™ reagent was added to terminate the kinase reaction and deplete the remaining ATP. After incubation for 1 hr at room temperature, kinase detection reagent was added to simultaneously convert ADP to ATP and allow the newly synthesized ATP to be measured using a luciferase/luciferin reaction. After incubation for 0.5 hr at room temperature, the luminescence generated was measured on a PHERAstar FS plate reader (BMG LABTECH). The residual enzyme activity in presence of increasing concentrations of compounds was calculated based on the luminescence. The IC50 for each compound was derived from fitting the data to the four-parameter logistic equation by Graphpad Prism software.
On the technique in general: ADP-Glo turns the ADP formed in a reaction into a luminescent signal.

The target in another experiment is PI3K (p110α/p85α) (Homo sapiens, UniProt P42336). Description: PI3Kα assay (ADP-Glo Kinase Assay). The conditions noted are these: recombinant enzyme; IC50 (nM) or max inhibition (%) at 0.5 μM.
Chain of PI3K (p110α/p85α) (P42336 whole entry): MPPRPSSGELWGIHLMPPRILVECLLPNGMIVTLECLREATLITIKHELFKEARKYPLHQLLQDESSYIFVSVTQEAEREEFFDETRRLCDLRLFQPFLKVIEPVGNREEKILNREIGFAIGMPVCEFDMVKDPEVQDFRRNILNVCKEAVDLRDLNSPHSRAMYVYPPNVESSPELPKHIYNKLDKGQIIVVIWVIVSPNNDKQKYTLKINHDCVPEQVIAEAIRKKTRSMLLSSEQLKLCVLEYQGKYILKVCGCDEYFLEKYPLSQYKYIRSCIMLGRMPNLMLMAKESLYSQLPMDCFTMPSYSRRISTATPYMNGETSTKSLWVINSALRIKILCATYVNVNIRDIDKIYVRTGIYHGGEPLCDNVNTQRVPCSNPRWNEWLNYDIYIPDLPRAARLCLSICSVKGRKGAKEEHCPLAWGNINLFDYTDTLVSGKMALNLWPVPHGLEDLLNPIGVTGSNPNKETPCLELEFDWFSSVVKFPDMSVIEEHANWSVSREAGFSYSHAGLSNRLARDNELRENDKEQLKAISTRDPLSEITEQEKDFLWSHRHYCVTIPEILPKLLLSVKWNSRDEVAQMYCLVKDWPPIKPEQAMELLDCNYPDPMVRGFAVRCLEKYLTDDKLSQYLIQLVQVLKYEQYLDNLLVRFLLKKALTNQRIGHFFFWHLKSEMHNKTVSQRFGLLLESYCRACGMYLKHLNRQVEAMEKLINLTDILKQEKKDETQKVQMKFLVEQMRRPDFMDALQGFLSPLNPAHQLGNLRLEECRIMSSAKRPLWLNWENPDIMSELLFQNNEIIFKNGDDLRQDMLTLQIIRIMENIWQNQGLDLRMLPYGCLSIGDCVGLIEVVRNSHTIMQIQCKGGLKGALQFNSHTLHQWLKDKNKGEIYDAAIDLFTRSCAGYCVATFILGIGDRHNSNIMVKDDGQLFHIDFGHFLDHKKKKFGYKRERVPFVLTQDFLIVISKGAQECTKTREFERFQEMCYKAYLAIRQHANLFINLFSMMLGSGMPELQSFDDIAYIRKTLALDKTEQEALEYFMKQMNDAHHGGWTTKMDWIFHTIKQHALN
Chain of PI3K (p110α/p85α) (P27986 whole entry partner): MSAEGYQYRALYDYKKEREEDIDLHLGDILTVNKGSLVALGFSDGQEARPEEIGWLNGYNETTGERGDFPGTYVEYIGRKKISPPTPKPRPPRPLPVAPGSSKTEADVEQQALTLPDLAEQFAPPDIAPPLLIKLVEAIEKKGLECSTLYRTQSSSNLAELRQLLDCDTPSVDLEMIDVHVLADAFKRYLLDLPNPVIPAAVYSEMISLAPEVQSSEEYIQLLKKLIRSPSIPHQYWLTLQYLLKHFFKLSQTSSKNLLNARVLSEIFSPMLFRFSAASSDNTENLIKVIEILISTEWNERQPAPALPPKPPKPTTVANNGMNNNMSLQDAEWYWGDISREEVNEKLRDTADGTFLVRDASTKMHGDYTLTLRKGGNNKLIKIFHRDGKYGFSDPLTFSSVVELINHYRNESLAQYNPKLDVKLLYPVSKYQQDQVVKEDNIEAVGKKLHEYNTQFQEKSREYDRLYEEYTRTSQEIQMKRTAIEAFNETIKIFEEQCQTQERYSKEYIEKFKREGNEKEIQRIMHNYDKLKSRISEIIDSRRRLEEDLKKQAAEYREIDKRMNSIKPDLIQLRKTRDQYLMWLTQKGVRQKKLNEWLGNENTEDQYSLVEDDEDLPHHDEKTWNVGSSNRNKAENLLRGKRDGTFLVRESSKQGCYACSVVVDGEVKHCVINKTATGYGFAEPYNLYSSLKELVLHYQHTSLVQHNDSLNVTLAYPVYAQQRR
The next experiment concerns the target PI3K (p110β/p85α) (Homo sapiens, UniProt P42338). Nature of the experiment: PI3Kβ assay (ADP-Glo Kinase Assay). Particulars: read-out: Enzyme activity IC50 PI3Kβ.
The next experiment deals with PI3K (p110γ) (Homo sapiens, UniProt P48736). Description: PI3Kγ assay (ADP-Glo Kinase Assay). The conditions noted are these: recombinant enzyme; IC50 (nM) or max inhibition (%) at 0.5 μM.
Chain of PI3K (p110γ) (P48736 whole entry): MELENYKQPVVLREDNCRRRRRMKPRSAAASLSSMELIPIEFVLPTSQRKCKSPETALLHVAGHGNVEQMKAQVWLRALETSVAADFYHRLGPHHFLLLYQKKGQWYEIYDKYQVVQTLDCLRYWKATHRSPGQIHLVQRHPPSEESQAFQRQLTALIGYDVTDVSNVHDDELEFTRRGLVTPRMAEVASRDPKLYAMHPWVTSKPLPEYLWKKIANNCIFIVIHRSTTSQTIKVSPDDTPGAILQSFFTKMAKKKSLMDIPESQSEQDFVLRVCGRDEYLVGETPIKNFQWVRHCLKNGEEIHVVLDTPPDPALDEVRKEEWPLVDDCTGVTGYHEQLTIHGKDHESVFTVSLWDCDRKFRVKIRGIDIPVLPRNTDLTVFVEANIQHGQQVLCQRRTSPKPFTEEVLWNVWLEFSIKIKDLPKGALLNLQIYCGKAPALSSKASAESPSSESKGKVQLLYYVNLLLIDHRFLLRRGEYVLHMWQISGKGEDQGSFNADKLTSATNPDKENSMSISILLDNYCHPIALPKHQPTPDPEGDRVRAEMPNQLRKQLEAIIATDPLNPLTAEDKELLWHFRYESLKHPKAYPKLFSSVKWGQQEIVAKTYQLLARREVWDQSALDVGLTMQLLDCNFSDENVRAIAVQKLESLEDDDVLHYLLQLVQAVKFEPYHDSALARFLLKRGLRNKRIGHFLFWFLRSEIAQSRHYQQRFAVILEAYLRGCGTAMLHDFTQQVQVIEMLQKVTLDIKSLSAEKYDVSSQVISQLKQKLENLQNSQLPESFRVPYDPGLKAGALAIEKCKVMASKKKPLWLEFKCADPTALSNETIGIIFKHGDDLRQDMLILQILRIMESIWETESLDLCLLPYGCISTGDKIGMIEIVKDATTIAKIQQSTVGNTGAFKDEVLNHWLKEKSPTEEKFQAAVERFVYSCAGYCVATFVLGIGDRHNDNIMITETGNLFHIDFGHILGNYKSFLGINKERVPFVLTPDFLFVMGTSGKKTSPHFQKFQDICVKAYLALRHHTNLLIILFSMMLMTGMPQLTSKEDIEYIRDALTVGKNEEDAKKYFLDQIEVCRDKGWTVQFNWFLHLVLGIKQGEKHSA

SMILES strings stand for the structures. Some results are limits rather than exact numbers.

Chain of PI3K (p110δ/p85α) (O00329 whole entry): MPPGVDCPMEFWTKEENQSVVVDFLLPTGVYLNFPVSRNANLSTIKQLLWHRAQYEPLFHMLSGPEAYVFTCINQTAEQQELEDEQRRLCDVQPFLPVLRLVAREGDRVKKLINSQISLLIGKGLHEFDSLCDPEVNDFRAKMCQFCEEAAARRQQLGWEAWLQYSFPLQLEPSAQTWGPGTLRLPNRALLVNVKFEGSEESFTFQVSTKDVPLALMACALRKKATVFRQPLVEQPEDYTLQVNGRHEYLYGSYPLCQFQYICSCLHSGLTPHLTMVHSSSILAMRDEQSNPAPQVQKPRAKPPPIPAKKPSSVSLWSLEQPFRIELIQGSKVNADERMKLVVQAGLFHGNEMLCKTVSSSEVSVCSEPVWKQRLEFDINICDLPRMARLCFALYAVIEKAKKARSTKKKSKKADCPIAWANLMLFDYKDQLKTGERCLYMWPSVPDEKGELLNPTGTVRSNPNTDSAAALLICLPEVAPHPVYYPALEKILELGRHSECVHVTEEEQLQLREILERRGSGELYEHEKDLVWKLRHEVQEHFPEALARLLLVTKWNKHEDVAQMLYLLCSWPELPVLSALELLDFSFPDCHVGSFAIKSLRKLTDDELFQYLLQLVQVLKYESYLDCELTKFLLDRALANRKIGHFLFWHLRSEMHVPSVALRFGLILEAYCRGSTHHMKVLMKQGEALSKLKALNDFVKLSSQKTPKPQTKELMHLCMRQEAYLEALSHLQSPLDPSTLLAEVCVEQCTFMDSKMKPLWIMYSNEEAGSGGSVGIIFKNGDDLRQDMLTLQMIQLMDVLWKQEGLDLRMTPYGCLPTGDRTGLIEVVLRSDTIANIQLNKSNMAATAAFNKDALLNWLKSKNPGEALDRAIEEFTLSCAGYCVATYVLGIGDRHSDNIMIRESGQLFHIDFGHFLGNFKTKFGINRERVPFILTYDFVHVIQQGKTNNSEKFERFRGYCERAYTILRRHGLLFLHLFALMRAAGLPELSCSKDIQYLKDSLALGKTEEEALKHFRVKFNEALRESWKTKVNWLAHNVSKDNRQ
Chain of PI3K (p110δ/p85α) (P27986 whole entry partner): as the sequence (P27986 whole entry partner) above
Chain of PI3K (p110β/p85α) (P42338 whole entry): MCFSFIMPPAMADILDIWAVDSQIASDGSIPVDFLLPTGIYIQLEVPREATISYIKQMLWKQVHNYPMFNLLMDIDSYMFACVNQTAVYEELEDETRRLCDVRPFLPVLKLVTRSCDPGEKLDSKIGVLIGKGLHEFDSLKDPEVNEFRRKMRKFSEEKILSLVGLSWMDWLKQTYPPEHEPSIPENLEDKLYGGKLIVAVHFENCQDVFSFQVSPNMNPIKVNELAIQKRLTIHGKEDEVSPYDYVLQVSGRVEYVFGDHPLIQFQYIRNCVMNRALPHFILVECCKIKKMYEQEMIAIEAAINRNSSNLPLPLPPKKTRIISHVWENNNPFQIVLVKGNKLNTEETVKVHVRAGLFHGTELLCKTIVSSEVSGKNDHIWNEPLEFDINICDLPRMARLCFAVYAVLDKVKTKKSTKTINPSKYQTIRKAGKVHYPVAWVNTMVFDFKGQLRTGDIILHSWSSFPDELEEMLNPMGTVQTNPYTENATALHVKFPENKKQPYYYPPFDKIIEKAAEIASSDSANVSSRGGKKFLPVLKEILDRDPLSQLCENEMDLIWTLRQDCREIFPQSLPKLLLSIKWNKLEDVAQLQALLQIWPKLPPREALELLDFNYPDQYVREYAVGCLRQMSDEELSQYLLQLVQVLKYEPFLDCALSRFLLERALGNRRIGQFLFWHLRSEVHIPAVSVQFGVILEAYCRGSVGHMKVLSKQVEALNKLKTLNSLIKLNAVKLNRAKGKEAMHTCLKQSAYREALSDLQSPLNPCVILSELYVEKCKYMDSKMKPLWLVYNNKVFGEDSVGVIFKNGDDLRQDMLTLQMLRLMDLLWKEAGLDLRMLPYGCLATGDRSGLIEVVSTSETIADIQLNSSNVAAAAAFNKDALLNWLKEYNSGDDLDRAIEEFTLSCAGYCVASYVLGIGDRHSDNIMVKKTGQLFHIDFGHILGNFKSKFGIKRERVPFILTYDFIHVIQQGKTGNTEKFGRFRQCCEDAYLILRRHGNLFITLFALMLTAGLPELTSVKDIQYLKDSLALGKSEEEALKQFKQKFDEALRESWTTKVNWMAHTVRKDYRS
Chain of PI3K (p110β/p85α) (P27986 whole entry partner): as the sequence (P27986 whole entry partner) above

With `COCCNC(=O)c1c(F)c(Cl)cc(C(C)c2nc(C)c3c(N)nccn23)c1OC(C)C` (centres unmarked) [Compound 8, 3-(1-(8-amino-1-methylimidazo[1,5-a]pyrazin-3-yl)ethyl)-5-chloro-6-fluoro-2-isopropoxy-N-(2-methoxyethyl)benzamide], the IC50 at PI3K (p110δ/p85α) was 2.3 nM; on PI3K (p110α/p85α) it was 49000 nM; at PI3K (p110β/p85α), 16 µM; on PI3K (p110γ), 6800 nM.

As for `Cc1nc(C(C)c2cc(Cl)c(F)c(C(=O)NC[C@@H](C)O)c2OC(C)C)n2ccnc(N)c12` (stereo partly drawn) [Compound 9, 3-(1-(8-amino-1-methylimidazo[1,5-a]pyrazin-3-yl)ethyl)-5-chloro-6-fluoro-N-((R)-2-hydroxypropyl)-2-isopropoxybenzamide], the IC50 was determined as 2.9 nM on PI3K (p110δ/p85α), 43000 nM at PI3K (p110α/p85α), 18 µM on PI3K (p110β/p85α) and 9200 nM on PI3K (p110γ).

For the compound `Cc1nc(C(C)c2cc(Cl)c(F)c(C(=O)NCC3(O)CC3)c2OC(C)C)n2ccnc(N)c12` (centres unmarked) [Compound 10, 3-(1-(8-amino-1-methylimidazo[1,5-a]pyrazin-3-yl)ethyl)-5-chloro-6-fluoro-N-((1-hydroxycyclopropyl)methyl)-2-isopropoxybenzamide], the IC50 at PI3K (p110δ/p85α) came to 3 nM; on PI3K (p110α/p85α), 34000 nM; on PI3K (p110β/p85α), 22 µM; on PI3K (p110γ), 9000 nM.

For `Cc1nc(C(C)c2cc(Cl)c(F)c(C(=O)NC3CC3)c2OC(C)C)n2ccnc(N)c12` (centres unmarked) [Compound 11, 3-(1-(8-amino-1-methylimidazo[1,5-a]pyrazin-3-yl)ethyl)-5-chloro-N-cyclopropyl-6-fluoro-2-isopropoxybenzamide], the IC50 on PI3K (p110δ/p85α) is 2 nM; at PI3K (p110α/p85α), 31000 nM; at PI3K (p110β/p85α), 6.2 µM; at PI3K (p110γ), 7300 nM.

In the case of `Cc1nc(C(C)c2cc(Cl)c(F)c(C(=O)Nc3ccccc3)c2OC(C)C)n2ccnc(N)c12` (centres unmarked) [Compound 12, 3-(1-(8-amino-1-methylimidazo[1,5-a]pyrazin-3-yl)ethyl)-5-chloro-6-fluoro-2-isopropoxy-N-phenylbenzamide], the IC50 is 3.7 nM on PI3K (p110δ/p85α), more than 50000 nM on PI3K (p110α/p85α), more than 50 µM on PI3K (p110β/p85α) and 14000 nM on PI3K (p110γ).

As for `CCOCC1(NC(=O)c2c(F)c(Cl)cc([C@H](C)c3nc(C)c4c(N)nccn34)c2OC(C)C)CC1` [Compound 15, (S)-3-(1-(8-amino-1-methylimidazo[1,5-a]pyrazin-3-yl)ethyl)-5-chloro-N-(1-(ethoxymethyl)cyclopropyl)-6-fluoro-2-isopropoxybenzamide], the IC50 at PI3K (p110δ/p85α) was 1.8 nM; on PI3K (p110α/p85α) it was 36000 nM; on PI3K (p110β/p85α), more than 50 µM; on PI3K (p110γ) it was 6700 nM.

Consider `Cc1nc([C@@H](C)c2cc(Cl)c(F)c(C(=O)NCCN(C)C)c2OC(C)C)n2ccnc(N)c12` [Compound 16, (S)-3-(1-(8-amino-1-methylimidazol[1,5-a]pyrazin-3-yl)ethyl)-5-chloro-N-(2-(dimethylamino)ethyl)-6-fluoro-2-isopropoxybenzamide], for which the IC50 on PI3K (p110δ/p85α) is 4 nM; on PI3K (p110α/p85α) it was 20000 nM; on PI3K (p110β/p85α), 17 µM; on PI3K (p110γ), 11000 nM.

Consider `COC[C@@H]1CCCN1C(=O)c1c(F)c(Cl)cc([C@H](C)c2nc(C)c3c(N)nccn23)c1OC(C)C` [Compound 17, (3-((S)-1-(8-amino-1-methylimidazo[1,5-a]pyrazin-3-yl)ethyl)-5-chloro-6-fluoro-2-isopropoxyphenyl)((S)-2-(methoxymethyl)pyrrolidin-1-yl)methanone], for which the IC50 stood at 3.8 nM on PI3K (p110δ/p85α), 77000 nM on PI3K (p110α/p85α), 72 µM on PI3K (p110β/p85α) and 14000 nM on PI3K (p110γ).

As to `Cc1nc([C@@H](C)c2cc(Cl)c(F)c(C(=O)Nc3ccc(F)cc3)c2OC(C)C)n2ccnc(N)c12` [Compound 18, (S)-3-(1-(8-amino-1-methylimidazo[1,5-a]pyrazin-3-yl)ethyl)-5-chloro-6-fluoro-N-(4-fluorophenyl)-2-isopropoxybenzamide], the IC50 was 2.4 nM on PI3K (p110δ/p85α), 19000 nM on PI3K (p110α/p85α), 12 µM on PI3K (p110β/p85α) and 6500 nM on PI3K (p110γ).

Turning to `COC1CCN(C(=O)c2c(F)c(Cl)cc([C@H](C)c3nc(C)c4c(N)nccn34)c2OC(C)C)CC1` [Compound 19, (S)-(3-(1-(8-amino-1-methylimidazo[1,5-a]pyrazin-3-yl)ethyl)-5-chloro-6-fluoro-2-isopropoxyphenyl)(4-methoxypiperidin-1-yl)methanone], the IC50 on PI3K (p110δ/p85α) came out at 2 nM; at PI3K (p110α/p85α), 33000 nM; on PI3K (p110β/p85α), 60 µM; at PI3K (p110γ), 10000 nM.

For `Cc1nc([C@@H](C)c2cc(Cl)c(F)c(C(=O)N[C@@H](C)c3ccccc3)c2OC(C)C)n2ccnc(N)c12` [Compound 21, 3-((S)-1-(8-amino-1-methylimidazo[1,5-a]pyrazin-3-yl)ethyl)-5-chloro-6-fluoro-2-isopropoxy-N-((S)-1-phenylethyl)benzamide], the IC50 on PI3K (p110δ/p85α) is 1.4 nM; on PI3K (p110α/p85α), 33000 nM; at PI3K (p110β/p85α) it was 28 µM; on PI3K (p110γ), 3900 nM.

Regarding `Cc1nc([C@@H](C)c2cc(Cl)c(F)c(C(=O)NC[C@@H]3CCCO3)c2OC(C)C)n2ccnc(N)c12` [Compound 24, 3-((S)-1-(8-amino-1-methylimidazo[1,5-a]pyrazin-3-yl)ethyl)-5-chloro-6-fluoro-2-isopropoxy-N-(((S)-tetrahydrofuran-2-yl)methyl)benzamide], the IC50 at PI3K (p110δ/p85α) is 1.6 nM; at PI3K (p110α/p85α), 36000 nM; at PI3K (p110β/p85α) it was 16 µM; on PI3K (p110γ), 5800 nM.

With `Cc1nc([C@@H](C)c2cc(Cl)c(F)c(C(=O)N[C@H]3CCC[C@H]3O)c2OC(C)C)n2ccnc(N)c12` [Compound 25, 3-((S)-1-(8-amino-1-methylimidazo[1,5-a]pyrazin-3-yl)ethyl)-5-chloro-6-fluoro-N-((1S,2R)-2-hydroxycyclopentyl)-2-isopropoxybenzamide], the IC50 turned out to be 1.9 nM on PI3K (p110δ/p85α), 24000 nM at PI3K (p110α/p85α), 8.7 µM on PI3K (p110β/p85α) and 6000 nM on PI3K (p110γ).

`Cc1nc([C@@H](C)c2cc(Cl)c(F)c(C(=O)NCCC3CCOCC3)c2OC(C)C)n2ccnc(N)c12` [Compound 26, (S)-3-(1-(8-amino-1-methylimidazol[1,5-a]pyrazin-3-yl)ethyl)-5-chloro-6-fluoro-2-isopropoxy-N-(2-(tetrahydro-2H-pyran-4-yl)ethyl)benzamide]: the IC50 on PI3K (p110δ/p85α) is 0.86 nM; at PI3K (p110α/p85α) it was 24000 nM; at PI3K (p110β/p85α), 17 µM; on PI3K (p110γ), 6500 nM.

With `CNC(=O)c1c(F)c(Cl)cc([C@H](C)c2nc(C)c3c(N)nccn23)c1OC(C)C` [Compound 27, (S)-3-(1-(8-amino-1-methylimidazo[1,5-a]pyrazin-3-yl)ethyl)-5-chloro-6-fluoro-2-isopropoxy-N-methylbenzamide], the IC50 came to 0.93 nM at PI3K (p110δ/p85α), 32000 nM at PI3K (p110α/p85α), 3 µM at PI3K (p110β/p85α) and 3900 nM at PI3K (p110γ).

With `CCNC(=O)c1c(F)c(Cl)cc([C@H](C)c2nc(C)c3c(N)nccn23)c1OC(C)C` [Compound 28, (S)-3-(1-(8-amino-1-methylimidazo[1,5-a]pyrazin-3-yl)ethyl)-5-chloro-6-fluoro-2-isopropoxy-N-ethyl-benzamide], the IC50 at PI3K (p110δ/p85α) amounted to 1.2 nM; on PI3K (p110α/p85α), 24000 nM; at PI3K (p110β/p85α), 6.8 µM; at PI3K (p110γ), 4800 nM.

For the compound `Cc1nc([C@@H](C)c2cc(Cl)c(F)c(C(=O)NCC3CCN(C)CC3)c2OC(C)C)n2ccnc(N)c12` [Compound 30, (S)-3-(1-(8-amino-1-methylimidazo[1,5-a]pyrazin-3-yl)ethyl)-5-chloro-6-fluoro-2-isopropoxy-N-((1-methylpiperidin-4-yl)methyl)benzamide], the IC50 on PI3K (p110δ/p85α) stood at 0.97 nM; on PI3K (p110α/p85α), 17000 nM; at PI3K (p110β/p85α), 14 µM; at PI3K (p110γ) it was 7700 nM.

Turning to `Cc1nc([C@@H](C)c2cc(Cl)c(F)c(C(=O)NC[C@H]3CCCO3)c2OC(C)C)n2ccnc(N)c12` [Compound 31, 3-((S)-1-(8-amino-1-methylimidazo[1,5-a]pyrazin-3-yl)ethyl)-5-chloro-6-fluoro-2-isopropoxy-N-(((R)-tetrahydrofuran-2-yl)methyl)benzamide], the IC50 at PI3K (p110δ/p85α) turned out to be 3.1 nM; at PI3K (p110α/p85α), 25000 nM; at PI3K (p110β/p85α), 16 µM; on PI3K (p110γ), 6200 nM.

Consider `Cc1nc([C@@H](C)c2cc(Cl)c(F)c(C(=O)NCc3ccccn3)c2OC(C)C)n2ccnc(N)c12` [Compound 33, (S)-3-(1-(8-amino-1-methylimidazo[1,5-a]pyrazin-3-yl)ethyl)-5-chloro-6-fluoro-2-isopropoxy-N-(pyridin-2-ylmethyl)benzamide], for which the IC50 on PI3K (p110δ/p85α) is 1.3 nM; at PI3K (p110α/p85α), 9300 nM; on PI3K (p110β/p85α), 13 µM; on PI3K (p110γ), 2200 nM.

For `Cc1nc([C@@H](C)c2cc(Cl)c(F)c(C(=O)NC[C@H]3CCOC3)c2OC(C)C)n2ccnc(N)c12` [Compound 34, 3-((S)-1-(8-amino-1-methylimidazo[1,5-a]pyrazin-3-yl)ethyl)-5-chloro-6-fluoro-2-isopropoxy-N-(((R)-tetrahydrofuran-3-yl)methyl)benzamide], the IC50 came to 1.4 nM on PI3K (p110δ/p85α), 36000 nM at PI3K (p110α/p85α), 11 µM at PI3K (p110β/p85α) and 3200 nM on PI3K (p110γ).

(Values after patent publication US11905294B2, “Imidazo[1,5-a]pyrazine derivatives as PI3Kδ inhibitors” (BEIGENE, LTD., priority 2017, dated 2024).)
